Drawing on patent US20260250290A1 (BRISTOL-MYERS SQUIBB COMPANY, priority 2023, published 2026), this text covers IC50 for 33 molecules.

The target of this assay is T1, full length SGK1 (Homo sapiens, UniProt O00141).
T1 construct: 125 μM full length SGK1 (Life Technologies Part #PR7358A); purchased Life Technologies PR7358A
T1 sequence (O00141 1-431): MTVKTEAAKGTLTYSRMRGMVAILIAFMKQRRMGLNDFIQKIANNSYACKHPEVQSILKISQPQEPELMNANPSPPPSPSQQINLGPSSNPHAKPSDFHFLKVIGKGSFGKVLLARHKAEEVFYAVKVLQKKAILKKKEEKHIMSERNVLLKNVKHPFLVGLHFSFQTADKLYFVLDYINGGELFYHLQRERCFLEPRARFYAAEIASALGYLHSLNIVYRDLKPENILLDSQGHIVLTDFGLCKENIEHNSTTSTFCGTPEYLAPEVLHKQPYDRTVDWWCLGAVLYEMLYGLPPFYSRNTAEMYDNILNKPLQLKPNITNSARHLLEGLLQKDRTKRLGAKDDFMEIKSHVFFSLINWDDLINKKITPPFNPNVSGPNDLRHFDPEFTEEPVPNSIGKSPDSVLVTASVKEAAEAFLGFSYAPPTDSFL
Nature of the assay: SGK1 inhibition Assay A (Caliper LabChip electrophoretic separation of fluorescent peptide substrate and phosphorylated product). In kind it is biochemical. The following applies: Assay A; 20 μM ATP, 40 min incubation; read-out: SGK1 IC50.

Each structure is given as a SMILES string. Where a name gives a salt, the structure may show the parent alone.

In general, IC50 refers to the point on the concentration scale where inhibition reaches its midpoint. `CC(C)(O)c1ccc(-c2cc(N3CCC[C@@H](NC(=O)c4ccc(Cl)s4)C3)c3c(N)ncnn23)cc1` [Example 218, (R)-N-(1-(4-amino-7-(4-(2-hydroxypropan-2-yl)phenyl)pyrrolo[2,1-f][1,2,4]triazin-5-yl)piperidin-3-yl)-5-chlorothiophene-2-carboxamide, TFA]: the IC50 worked out at 233 nM.

As to `Nc1ncnn2c(-c3ccc4c(c3)C(=O)NC4)cc(N3CCC[C@@H](NC(=O)c4ccc(Cl)s4)C3)c12` [Example 219, (R)-N-(1-(4-amino-7-(3-oxoisoindolin-5-yl)pyrrolo[2,1-f][1,2,4]triazin-5-yl)piperidin-3-yl)-5-chlorothiophene-2-carboxamide], the IC50 was determined as 68 nM. The value for `Nc1ncnn2c(-c3ccnc(C(F)(F)F)c3)cc(N3CCC[C@@H](NC(=O)c4ccc(Cl)s4)C3)c12` [Example 220, (R)-N-(1-(4-amino-7-(2-(trifluoromethyl)pyridin-4-yl)pyrrolo[2,1-f][1,2,4]triazin-5-yl)piperidin-3-yl)-5-chlorothiophene-2-carboxamide] was 7 nM; that for `Nc1ncnn2c(-c3ccc(CN4CCOCC4)cc3)cc(N3CCC[C@@H](NC(=O)c4ccc(Cl)s4)C3)c12` [Example 221] was 800 nM. Under `COc1cc(-c2cc(N3CCC[C@@H](NC(=O)c4ccc(Cl)s4)C3)c3c(N)ncnn23)ccc1C#N` [Example 222, (R)-N-(1-(4-amino-7-(4-cyano-3-methoxyphenyl)pyrrolo [2,1-f][1,2,4]triazin-5-yl)piperidin-3-yl)-5-chlorothiophene-2-carboxamide, TFA] stands 43 nM; under `Nc1ncnn2c(-c3ccc(N4CCOCC4)cc3)cc(N3CCC[C@@H](NC(=O)c4ccc(Cl)s4)C3)c12` [Example 223, (R)-N-(1-(4-amino-7-(4-morpholinophenyl)pyrrolo [2,1-f][1,2,4]triazin-5-yl)piperidin-3-yl)-5-chlorothiophene-2-carboxamide, TFA], 199 nM. Under `COCCNC(=O)c1ccc(-c2cc(N3CCC[C@@H](NC(=O)c4ccc(Cl)s4)C3)c3c(N)ncnn23)cc1` [Example 224, (R)-N-(1-(4-amino-7-(4-((2-methoxyethyl)carbamoyl)phenyl)pyrrolo[2,1-f][1,2,4]triazin-5-yl)piperidin-3-yl)-5-chlorothiophene-2-carboxamide] stands 11 nM; under `Nc1ncnn2c(-c3ccc(OC(F)F)cc3)cc(N3CCC[C@@H](NC(=O)c4ccc(Cl)s4)C3)c12` [Example 225, (R)-N-(1-(4-amino-7-(4-(difluoromethoxy)phenyl)pyrrolo [2,1-f][1,2,4]triazin-5-yl)piperidin-3-yl)-5-chlorothiophene-2-carboxamide, TFA], 15 nM; under `CS(=O)(=O)c1ccc(-c2cc(N3CCC[C@@H](NC(=O)c4ccc(Cl)s4)C3)c3c(N)ncnn23)cn1` [Example 226, N-[(3R)-1-[4-amino-7-(6-methanesulfonylpyridin-3-yl)pyrrolo[2,1-f][1,2,4]triazin-5-yl]piperidin-3-yl]-5-chlorothiophene-2-carboxamide], 2 nM. With `COc1c(-c2cc(N3CCC[C@@H](NC(=O)c4ccc(Cl)s4)C3)c3c(N)ncnn23)ccnc1F` [Example 227], the IC50 worked out at 18 nM.

In the case of `Nc1ncnn2c(-c3ccc(S(=O)(=O)C4CC4)cc3)cc(N3CCC[C@@H](NC(=O)c4ccc(Cl)s4)C3)c12` [Example 228, N-[(3R)-1-{4-amino-7-[4-(cyclopropanesulfonyl)phenyl]pyrrolo[2,1-f][1,2,4]triazin-5-yl}piperidin-3-yl]-5-chlorothiophene-2-carboxamide, TFA], the IC50 was 6 nM. Take `Nc1ncnn2c(-c3cccc(OC(F)F)c3)cc(N3CCC[C@@H](NC(=O)c4ccc(Cl)s4)C3)c12` [Example 229]: the IC50 was determined as 46 nM.

On to `Nc1ncnn2c(-c3ccco3)cc(N3CCC[C@@H](NC(=O)c4ccc(Cl)s4)C3)c12` [Example 230], for which the half-maximal inhibitory concentration (IC50) stood at 21 nM. Under `Nc1ncnn2c(-c3cc(F)nc(F)c3)cc(N3CCC[C@@H](NC(=O)c4ccc(Cl)s4)C3)c12` [Example 231] stands 12 nM; under `COc1cc(-c2cc(N3CCC[C@@H](NC(=O)c4ccc(Cl)s4)C3)c3c(N)ncnn23)cc(C(F)(F)F)n1` [Example 232, N-[(3R)-1-{4-amino-7-[2-methoxy-6-(trifluoromethyl)pyridin-4-yl]pyrrolo[2,1-f][1,2,4]triazin-5-yl}piperidin-3-yl]-5-chlorothiophene-2-carboxamide], 161 nM. The value for `Cc1cnc(F)cc1-c1cc(N2CCC[C@@H](NC(=O)c3ccc(Cl)s3)C2)c2c(N)ncnn12` [Example 233] was 33 nM. The value for `Nc1ncnn2c(-c3cccc(Cl)c3)cc(N3CCC[C@@H](NC(=O)c4ccc(Cl)s4)C3)c12` [Example 234] was 64 nM; that for `Nc1ncnn2c(-c3ccc(Cl)cc3)cc(N3CCC[C@@H](NC(=O)c4ccc(Cl)s4)C3)c12` [Example 235] was 37 nM. As for `Nc1ncnn2c(-c3ccc(Cl)nc3)cc(N3CCC[C@@H](NC(=O)c4ccc(Cl)s4)C3)c12` [Example 236], the half-inhibitory concentration (IC50) stood at 19 nM. The value for `COC(=O)c1ccc(-c2cc(N3CCC[C@@H](NC(=O)c4ccc(Cl)s4)C3)c3c(N)ncnn23)n1C` [Example 238, methyl 5-{4-amino-5-[(3R)-3-(5-chlorothiophene-2-amido)piperidin-1-yl]pyrrolo[2,1-f] [1,2,4]triazin-7-yl}-1-methyl-1H-pyrrole-2-carboxylate] was 91 nM; that for `Nc1ncnn2c(C3=CCC(F)(F)CC3)cc(N3CCC[C@@H](NC(=O)c4ccc(Cl)s4)C3)c12` [Example 239] was 43 nM; that for `CC(O)c1cccc(-c2cc(N3CCC[C@@H](NC(=O)c4ccc(Cl)s4)C3)c3c(N)ncnn23)c1` (stereo partly drawn) [Example 240, N-[(3R)-1-{4-amino-7-[3-(1-hydroxyethyl)phenyl]pyrrolo[2,1-f][1,2,4]triazin-5-yl}piperidin-3-yl]-5-chlorothiophene-2-carboxamide] was 14 nM. In the case of `N#Cc1ccc(-c2cc(N3CCC[C@@H](NC(=O)c4ccc(Cl)s4)C3)c3c(N)ncnn23)cn1` [Example 241], the half-inhibitory concentration (IC50) was 0.3 nM. Under `CNC(=O)c1ccc(-c2cc(N3CCC[C@@H](NC(=O)c4ccc(Cl)s4)C3)c3c(N)ncnn23)cn1` [Example 242, (R)-5-(4-amino-5-(3-(5-chlorothiophene-2-carboxamido)piperidin-1-yl)pyrrolo[2,1-f][1,2,4]triazin-7-yl)-N-methylpicolinamide] stands 5 nM. With `N#Cc1ccc(-c2cc(N3CCC[C@@H](NC(=O)c4ccc(Cl)s4)C3)c3c(N)ncnn23)cc1F` [Example 243, (R)-N-(1-(4-amino-7-(4-cyano-3-fluorophenyl)pyrrolo[2,1-f][1,2,4]triazin-5-yl)piperidin-3-yl)-5-chlorothiophene-2-carboxamide, TFA], the concentration for half-maximal inhibition (IC50) was 1 nM. The value for `Nc1ncnn2c(-c3ccc4nnnn4c3)cc(N3CCC[C@@H](NC(=O)c4ccc(Cl)s4)C3)c12` [Example 244, (R)-N-(1-(4-amino-7-(tetrazolo[1,5-a]pyridin-6-yl)pyrrolo[2,1-f][1,2,4]triazin-5-yl)piperidin-3-yl)-5-chlorothiophene-2-carboxamide] was 1 nM; that for `Nc1ncnn2c(-c3ccc(-n4cnnn4)c(F)c3)cc(N3CCC[C@@H](NC(=O)c4ccc(Cl)s4)C3)c12` [Example 245, (R)-N-(1-(4-amino-7-(3-fluoro-4-(1H-tetrazol-1-yl)phenyl)pyrrolo[2,1-f][1,2,4]triazin-5-yl)piperidin-3-yl)-5-chlorothiophene-2-carboxamide] was 1 nM; that for `Nc1ncnn2c(-c3cnc4ncnn4c3)cc(N3CCC[C@@H](NC(=O)c4ccc(Cl)s4)C3)c12` [Example 246] was 13 nM. Under `Nc1ncnn2c(-c3ccc4ncnn4c3)cc(N3CCC[C@@H](NC(=O)c4ccc(Cl)s4)C3)c12` [Example 247] stands 12 nM. On to `Nc1ncnn2c(-c3ccc(C(F)F)nc3)cc(N3CCC[C@@H](NC(=O)c4ccc(Cl)s4)C3)c12` [Example 248, (R)-N-(1-(4-amino-7-(6-(difluoromethyl)pyridin-3-yl)pyrrolo[2,1-f][1,2,4]triazin-5-yl)piperidin-3-yl)-5-chlorothiophene-2-carboxamide, TFA], for which the half-inhibitory concentration (IC50) stood at 3 nM. Under `Nc1ncnn2c(-c3ccc(-n4cnnn4)cc3)cc(N3CCC[C@@H](NC(=O)c4ccc(Cl)s4)C3)c12` [Example 249, (R)-N-(1-(7-(4-(1H-tetrazol-1-yl)phenyl)-4-aminopyrrolo[2,1-f][1,2,4]triazin-5-yl)piperidin-3-yl)-5-chlorothiophene-2-carboxamide, TFA] stands 1 nM. The value for `N#Cc1ncn(-c2ccc(-c3cc(N4CCC[C@@H](NC(=O)c5ccc(Cl)s5)C4)c4c(N)ncnn34)cn2)n1` [Example 250, (R)-N-(1-(4-amino-7-(6-(3-cyano-1H-1,2,4-triazol-1-yl)pyridin-3-yl)pyrrolo[2,1-f][1,2,4]triazin-5-yl)piperidin-3-yl)-5-chlorothiophone-2-carboxamide, TFA] was 3 nM; that for `Nc1ncnn2c(-c3ccc(-n4cncn4)nc3)cc(N3CCC[C@@H](NC(=O)c4ccc(Cl)s4)C3)c12` [Example 251, (R)-N-(1-(7-(6-(1H-1,2,4-triazol-1-yl)pyridin-3-yl)-4-aminopyrrolo[2,1-f][1,2,4]triazin-5-yl)piperidin-3-yl)-5-chlorothiophene-2-carboxamide, TFA] was 1 nM.
